Measured values as given in PMC6483092 (ACS infectious diseases, 2019).

Experiments:
HIV-1IIIB (wild-type) = conditions: HIV-1IIIB strain (wild-type virus)
HIV-1 = conditions: as described in the literature; cited from earlier work

Compound | IC50 times lower than enfuvirtide (HIV-1IIIB (wild-type)) | IC90 times lower than enfuvirtide (HIV-1IIIB (wild-type)) | IC50 (HIV-1)
CC[C@H](C)[C@H](NC(=O)[C@H](CC(C)C)NC(=O)[C@H](CO)NC(=O)[C@H](Cc1c[nH]cn1)NC(=O)[C@@H](NC(=O)[C@H](CC(C)C)NC(=O)[C@H](CO)NC(=O)[C@@H](NC(=O)[C@H](Cc1ccc(O)cc1)NC(=O)[C@H](CC(N)=O)NC(=O)[C@H](CC(N)=O)NC(=O)[C@@H](NC(=O)[C@H](CCC(=O)O)NC(=O)[C@H](CCCNC(=N)N)NC(=O)[C@H](CC(=O)O)NC(=O)[C@H](Cc1c[nH]c2ccccc12)NC(=O)[C@H](CCC(=O)O)NC(=O)[C@H](CCSC)NC(=O)[C@H](Cc1c[nH]c2ccccc12)NC(C)=O)[C@@H](C)CC)[C@@H](C)O)[C@@H](C)CC)C(=O)N[C@@H](CCC(=O)O)C(=O)N[C@@H](CCC(=O)O)C(=O)N[C@@H](CO)C(=O)N[C@@H](CCC(N)=O)C(=O)N[C@@H](CC(N)=O)C(=O)N[C@@H](CCC(N)=O)C(=O)N[C@@H](CCC(N)=O)C(=O)N[C@@H](CCC(=O)O)C(=O)N[C@@H](CCCCN)C(=O)N[C@@H](CC(N)=O)C(=O)N[C@@H](CCC(=O)O)C(=O)N[C@@H](CCC(N)=O)C(=O)N[C@@H](CCC(=O)O)C(=O)N[C@@H](CC(C)C)C(=O)N[C@@H](CC(C)C)C(=O)NCC(=O)N[C@@H](CO)C(=O)NCC(=O)N[C@@H](CSCC(=O)O[C@H]1CC[C@@]2(C)C(=CC[C@H]3[C@@H]4CC[C@H]([C@H](C)CCCC(C)(C)O)[C@@]4(C)CC[C@@H]32)C1)C(N)=O [C34-HC] | 25 times | 40 times | –
WMEWDREINNYTSL-IHSLIEESQNQQEKNEQELL [C34] | – | – | 1.4 nM
